The text below walks through data of patent US20120022024A1, “ANTI-BACTERIAL COMPOSITIONS AND METHODS INCLUDING TARGETING VIRULENCE FACTORS OF STAPHYLOCOCCUS AUREUS” (priority 2009, published 2012).

The test system of experiment [1] is S. aureus. The note with it: non-pigmented S. aureus after treatment versus normally pigmented; cited from earlier work.
Experiment [2] has as its system S. aureus. To be noted: treated mice compared to a control group; cited from earlier work.
Experiment [3] deals with S. aureus. The note with it: non-pigmented S. aureus after treatment versus normally pigmented; cited from earlier work. The source holds these as a separate data set.
The subject of experiment [4] is staphyloxanthin (STX) biosynthesis in S. aureus. The experiment is described as follows: Staphyloxanthin biosynthesis inhibition assay. In kind it is cell-based, Staphylococcus aureus. To be noted: Staphylococcus aureus. The method, then:
The question next arises: how potent are these compounds in inhibiting STX biosynthesis in S. aureus? We thus treated S. aureus bacteria with serially diluted compounds at 37° C. for 3 days, after which the STX pigment was extracted with methanol. Optical densities were measured at 450 nm and IC50 values for inhibition of pigment formation for each compound were calculated using a standard dose-response curve. The rank ordered IC50 values of the 38 compounds investigated are shown in Table 7 and dose-response curves of representative compounds are shown in FIG. 2.
The S. aureus strain used was the WT clinical isolate (Pig1) (4). S. aureus was cultured in THB (1 mL) in the presence of inhibitor compounds for 72 h, in duplicate. Cells were then centrifuged and washed twice with PBS. STX was extracted with MeOH and the O.D. was determined at 450 nm using a Perkin Elmer MBA 2000 (Norwalk, Conn.) spectrophotometer.

In experiment [5] the target is S. aureus CrtM (dehydrosqualene synthase) (Staphylococcus aureus, UniProt A9JQL9). The experiment is described as follows: CrtM enzyme inhibition assay.
S. aureus CrtM (dehydrosqualene synthase), sequence (A9JQL9 whole entry): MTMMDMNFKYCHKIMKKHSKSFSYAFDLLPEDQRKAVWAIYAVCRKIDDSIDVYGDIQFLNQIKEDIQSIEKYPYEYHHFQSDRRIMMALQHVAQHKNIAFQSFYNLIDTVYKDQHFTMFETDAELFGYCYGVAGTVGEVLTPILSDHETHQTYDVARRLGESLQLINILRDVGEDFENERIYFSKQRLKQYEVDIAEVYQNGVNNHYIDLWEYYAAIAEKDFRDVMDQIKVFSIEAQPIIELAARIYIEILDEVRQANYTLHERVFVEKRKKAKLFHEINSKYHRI
The target in experiment [6] is T1, human squalene synthase (hSQS) (Homo sapiens, UniProt P37268).
T1 construct: a double truncated protein lacking residues 31 at the N-terminus and 46 at the C-terminus; six-histidine tag (pET-28a) (N); made in house; host or cells: E. coli BL21 (DE3) RP
T1 sequence (P37268 31-370 limits assumed): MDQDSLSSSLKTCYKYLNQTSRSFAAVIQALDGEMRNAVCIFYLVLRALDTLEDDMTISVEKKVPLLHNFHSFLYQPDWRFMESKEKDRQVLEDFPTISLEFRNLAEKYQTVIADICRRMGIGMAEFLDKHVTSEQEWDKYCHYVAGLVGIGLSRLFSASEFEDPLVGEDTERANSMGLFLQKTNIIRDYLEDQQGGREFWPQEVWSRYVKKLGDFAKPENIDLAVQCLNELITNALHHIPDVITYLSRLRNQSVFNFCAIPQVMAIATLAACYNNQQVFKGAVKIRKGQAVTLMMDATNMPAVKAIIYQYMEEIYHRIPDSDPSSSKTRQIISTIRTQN
The experiment is described as follows: Human SQS enzyme inhibition assay. To be noted: for IC50: Table 8; for CrtM/hSQS selectivity: IC50(hSQS)/IC50(CrtM); for pIC50 (CrtM) − pIC50 (hSQS): experimental data; for relative CrtM/hSQS selectivity: selectivity of compound/selectivity of 1. Type of experiment: biochemical. As for the experimental part:
The corresponding amplified insert was initially cloned in the vector pGEMT® (Promega). Plasmid was digested with the endonucleases NdeI and BamHI, and the resulting fragment was cloned into the bacterial expression vector pET-28a to give pET28a-HsSQS which was used to transform E. coli BL21 (DE3) RP strain (Novagen) for overexpression.
Bacteria expressing the constructs were cultured in Luria-Bertani medium supplemented with kanamycin (30 μg/ml) and chloramphenicol (34 μg/ml) at 37° C., until the cells reached an OD of 0.4 at 600 nm, and were then induced at 37° C. for 4 h by incubation with 1 mM isopropyl-1-thio-β-D-galactopyranoside. Cells were harvested by centrifugation (10 min, 4000 rpm) and resuspended in 10 ml of lysis/elution buffer (20 mM […], pH 7.4, 10 mM CHAPS, 2 mM MgCl2, 10% glycerol, 10 mM—mercaptoethanol, 500 mM NaCl, 10 mM imidazole, and a protease inhibitor cocktail (Roche), disrupted by sonication, and centrifuged at 16,000 rpm for 30 min. The supernatant ([…]) was then applied to a HiTrap Nickel-Chelating HP column (Amersham Biosciences). Enzyme purification was performed according to the manufacturer's instructions using a Pharmacia FPLC system. Unbound protein was washed off with 50 mM imidazole, then the His6-HsSQS was eluted with 1M imidazole.
SQS activity was based on measuring the conversion of [3H]FPP to [3H]squalene. […] The region of the squalene band was scraped and immersed in Hydrofluor liquid scintillation fluid, and assayed for radioactivity. IC50 values were calculated from the hyperbolic plot of percent of inhibition versus inhibitor concentration, using GraphPad PRISM®.

Setting [7] is: 72 h, read-out: Staphyloxanthin IC50.
Where [8] appears, read: read-out: CrtM enzyme experimental activity IC50, Table 5.

Where a name gives a salt, the structure may show the parent alone. Read-outs that look alike come from different tables or passages of the source.

In the case of `O=P([O-])([O-])C(CCCc1cccc(Oc2ccccc2)c1)S(=O)(=O)[O-].[K+].[K+].[K+]` (stereo not shown) [Compound 1, 1-Phosphono-4-(3-phenoxyphenyl)butylsulfonic acid tripotassium salt, reference compound], the “survival in freshly isolated human whole blood” value in experiment [1] is “less able to survive in freshly isolated human whole blood”. The “bacterial counts in kidneys reduced / bacterial growth inhibited” value in experiment [2] is reported as 98%. Besides, the “susceptibility to killing by hydrogen peroxide” value in experiment [3] was “much more susceptible to killing by hydrogen peroxide”. Further, the IC50 in experiment [4] (setting [7]) is 0.11 µM; in experiment [4] (read-out: IC50 (STX)), 0.11 µM; in experiment [4] (read-out: IC50(STX)) it was 0.11 µM; in experiment [4] (read-out: IC50 for STX biosynthesis), 0.11 µM; in experiment [5] (read-out: IC50 against CrtM) it was 7.9 µM.

For `O=P([O-])([O-])C(CCCc1ccc(-c2ccc(C(F)(F)F)cc2)cc1)P(=O)([O-])[O-].[K+].[K+].[K+].[K+]` [Compound 3, 4-[4-(4-Trifluoromethylphenyl)phenyl)]butyldiphosphonic acid dipotassium salt], the IC50 in experiment [4] (setting [7]) came out at 1.1 µM; in experiment [6], 0.003 µM; in experiment [5] (setting [8]), 0.18 µM; in experiment [5] (read-out: IC50 against CrtM), 0.2 µM. In experiment [5], the Ki was ~0.0005 µM.

Turning to `O=P([O-])([O-])C(CCCc1ccc(-c2ccc(C(F)(F)F)cc2)cc1)P(=O)([O-])[O-].[K+].[K+].[K+].[K+]` [Compound 3], in experiment [6], the CrtM/hSQS selectivity was 0.014, the “pIC50 (CrtM) − pIC50 (hSQS)” value was −1.86 and the “relative CrtM/hSQS selectivity” value is on record as 4.8. For the same compound, the “CrtM enzyme experimental activity pIC50” value in experiment [5] (Table 5) is recorded as 6.74.

As for `CP(=O)([O-])C(CCCc1ccc(-c2ccccc2)cc1)P(=O)([O-])[O-].[K+].[K+].[K+]` (stereo not shown) [Compound 4], in experiment [6], the CrtM/hSQS selectivity was 0.014 and the “relative CrtM/hSQS selectivity” value is reported as 4.7.

As for `O=P([O-])([O-])C(Cc1cccc(Oc2ccccc2)c1)S(=O)(=O)[O-].[K+].[K+].[K+]` (stereo not shown) [Compound 14, 1-Phosphono-2-(3-phenoxyphenyl)ethylsulfonic acid tripotassium salt], the IC50 in experiment [4] (setting [7]) turned out to be 33.9 µM. Further, in experiment [6], the CrtM/hSQS selectivity was found to be 0.0022, the IC50 amounted to 3.7 µM, the “pIC50 (CrtM) − pIC50 (hSQS)” value is on record as −2.66 and the “relative CrtM/hSQS selectivity” value worked out at 0.8. The concentration for half-maximal inhibition (IC50) in experiment [5] (setting [8]) stood at 1700 µM.

With `O=P([O-])([O-])C(CCc1cccc(Oc2ccccc2)c1)S(=O)(=O)[O-].[K+].[K+].[K+]` (stereo not shown) [Compound 15, 1-Phosphono-3-(3-phenoxyphenyl)propylsulfonic acid tripotassium salt], in experiment [4] (setting [7]), the IC50 was determined as 20.4 µM. Also, in experiment [6], the CrtM/hSQS selectivity came out at 0.0011, half-maximal inhibition (IC50) was put at 0.55 µM, the “pIC50 (CrtM) − pIC50 (hSQS)” value was −2.96 and the “relative CrtM/hSQS selectivity” value was 0.4. Moreover, the IC50 in experiment [5] is > 500 µM. Also, in experiment [5] (Table 5), the “CrtM enzyme experimental activity pIC50” value is 3.3. Also, the IC50 in experiment [5] (setting [8]) turned out to be 500 µM.

`O=P(O)(O)C(CCCc1cccc(Cc2ccccc2)c1)S(=O)(=O)O` (stereo not shown) [Compound 17, 1-Phosphono-4-(3-benzylphenyl)butylsulfonic acid tripotassium salt]: the results for the IC50 in experiment [4] (setting [7]) and in experiment [5] (setting [8]) were 0.17 µM and 20.4 µM, respectively.

As for `CC(C)(C)c1ccc(Oc2cccc(CCCC(P(=O)(O)O)S(=O)(=O)O)c2)cc1` (stereo not shown) [Compound 25, 1-Phosphono-4-[3-(4-tert-butylphenoxy)phenyl]butylsulfonic acid tripotassium salt], the IC50 in experiment [4] (setting [7]) is 0.021 µM; in experiment [4] (read-out: IC50 (STX)) it was 0.021 µM; in experiment [5] (read-out: IC50 (CrtM), Table 1), 10.5 µM.

`O=P(O)(O)C(CCCc1cccc(Oc2ccc(Cc3ccccc3)cc2)c1)S(=O)(=O)O` (stereo not shown) [Compound 26, 1-Phosphono-4-[3-(4-benzylphenoxy)phenyl]butylsulfonic acid tripotassium salt]: the IC50 in experiment [4] (setting [7]) was 0.049 µM; in experiment [4] (read-out: IC50 (STX)) it was 0.049 µM; in experiment [5] (read-out: IC50 (CrtM), Table 1) it was 13.5 µM.

Take `O=P([O-])([O-])[C@H](CCCc1cccc(Oc2ccccc2)c1)S(=O)(=O)[O-].[K+].[K+].[K+]` [Compound (S)-1, (1S)-1-Phosphono-4-(3-phenoxyphenyl)butylsulfonic acid tripotassium salt]: the IC50 was found to be 0.05 µM in experiment [4] (setting [7]) and 1.4 µM in experiment [5] (read-out: IC50 against CrtM). Further, the “more active than its (R)-enantiomer in CrtM inhibition” value in experiment [5] (fold, versus (R)-1) is listed as ~30 ×.

On to `O=C(CP(=O)(O)O)N(O)CCCc1cccc(Oc2ccccc2)c1` [compound 808], for which the IC50 stood at 0.108 µM in experiment [4] (read-out: IC50(STX)); 0.11 µM in experiment [4] (read-out: IC50(STX), cell activity); 67.5 µM in experiment [5].

In the case of `O=C(NO)C(CCCc1cccc(Oc2ccccc2)c1)P(=O)(O)O` (stereo not shown) [compound 809], the IC50 in experiment [4] (read-out: IC50(STX)) is 4.23 µM; in experiment [5], 859 µM.

Regarding `O=C(CP(=O)(O)O)N(O)Cc1cccc(-c2cccc(-c3ccccc3)c2)c1` [compound 810], the figures for the IC50 in experiment [4] (read-out: IC50(STX)) and in experiment [5] were 158 µM and 597 µM, respectively.

Take `Cc1ccc(-c2ccc(CCCN(O)C(=O)CP(=O)(O)O)cc2)cc1` [compound 826]: the values for the IC50 in experiment [4] (read-out: IC50(STX)) and in experiment [5] were 4.11 µM and > 1500 µM, respectively.

For `O=C(CP(=O)(O)O)NCCCc1cccc(Oc2ccccc2)c1` [compound 830], the IC50 was determined as 0.008 µM in experiment [4] (read-out: IC50(STX)) and 8.9 µM in experiment [5].

For `O=C(CCCCc1ccc(Oc2ccccc2)cc1)CP(=O)(O)O` [compound 839], the half-inhibitory concentration (IC50) in experiment [4] (read-out: IC50(STX)) was 28 µM; in experiment [5], 1520 µM.

In the case of `O=P(O)(O)CS(=O)(=O)NCCCc1cccc(Oc2ccccc2)c1` [compound 841], the IC50 in experiment [4] (read-out: IC50(STX)) was > 500 µM; in experiment [5], 1640 µM.

Turning to `CC(C)(C(=O)NCCCc1cccc(Oc2ccccc2)c1)P(=O)(O)O` [compound 847], the IC50 in experiment [4] (read-out: IC50(STX)) is > 500 µM; in experiment [5] it was 204 µM.

As for `CN(CCCc1cccc(Oc2ccccc2)c1)C(=O)CP(=O)(O)O` [compound 848], the IC50 in experiment [4] (read-out: IC50(STX)) was determined as 8.6 µM; in experiment [5], 193 µM.

Consider `O=C(CS(=O)(=O)O)NCCCc1cccc(Oc2ccccc2)c1` [compound 884], for which the IC50 stood at 15 µM in experiment [4] (read-out: IC50(STX)) and 171 µM in experiment [5].

Take `O=P(O)(O)CP(=O)(O)CCCCc1cccc(Oc2ccccc2)c1` [compound 885]: the figures for the IC50 in experiment [4] (read-out: IC50(STX)) and in experiment [5] were 0.44 µM and 45 µM, respectively.

Regarding `O=C(CP(=O)(O)O)NCCCc1cccc(Oc2ccc(Cl)c(Cl)c2)c1` [compound 886], the IC50 was 0.04 µM in experiment [4] (read-out: IC50(STX)) and 7 µM in experiment [5].

For the compound `O=C(CP(=O)(O)O)OCCCc1cccc(Oc2ccccc2)c1` [compound 887], the IC50 in experiment [4] (read-out: IC50(STX)) is 1.5 µM; in experiment [5], 1190 µM.

Turning to `O=C(CP(=O)(O)O)NCCc1cccc(Oc2ccccc2)c1` [compound 897], the 50% inhibitory concentration (IC50) in experiment [4] (read-out: IC50(STX)) turned out to be 3 µM; in experiment [5] it was 323 µM.

Turning to `O=C(CP(=O)(O)O)NCCCCc1cccc(Oc2ccccc2)c1` [compound 898], the IC50 in experiment [4] (read-out: IC50(STX)) was found to be 35 µM; in experiment [5], 1080 µM.

In the case of `O=C(CP(=O)(O)O)NCCCc1cccc(Oc2ccc(Cl)cc2)c1` [compound 926], the IC50 in experiment [4] (read-out: IC50(STX)) amounted to 0.028 µM; in experiment [5], 15.3 µM.

Regarding `O=C(CP(=O)(O)O)N(O)CCCc1cccc(Oc2ccc(Cl)c(Cl)c2)c1` [compound 927], the results for the IC50 in experiment [4] (read-out: IC50(STX)) and in experiment [5] were 0.042 µM and 67.2 µM, respectively.

The term IC50 denotes the midpoint of a concentration-inhibition curve. Broadly, the Ki is the dissociation constant of the complex between target and ligand, obtained from inhibition or displacement. High values mean lower affinity, low ones higher affinity.
